ChEMBL document CHEMBL1201862, “PubChem BioAssay data set” (2004)
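48-hour exposure; five concentrations; linearly interpolated endpoints. GI50 = concentration required for 50% inhibition of growth.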 Active and inactive are the calls of the source. No stated cut-off is given here; in the data, active = GI50 up to about 1.1 µM and inactive = higher.

Columns and labels:
Test in all cases: NCI-60 cell line screen, 48 h
RXF 631 = test system: RXF 631
SN12C = test system: SN12C
NCI-H226 = test system: NCI-H226
SW-620 = test system: SW-620
NCI-H522 = test system: NCI-H522
LOX IMVI = test system: LOX IMVI
A549 = test system: A549
SF-539 = test system: SF-539
UO-31 = test system: UO-31
HCT-15 = test system: HCT-15
MOLT-4 = test system: MOLT-4
M14 = test system: M14
HOP-92 = test system: HOP-92
RPMI-8226 = test system: RPMI-8226
M19-MEL = test system: M19-MEL
A498 = test system: A498
CAKI-1 = test system: CAKI-1
SNB-19 = test system: SNB-19
KM-20L2 = test system: KM-20L2
KM12 = test system: KM12
RXF 393 = test system: RXF 393
Malme-3M = test system: Malme-3M
UACC-257 = test system: UACC-257
TK-10 = test system: TK-10
786-0 = test system: 786-0
SR = test system: SR
HOP-18 = test system: HOP-18
DMS-114 = test system: DMS-114
SK-MEL-28 = test system: SK-MEL-28
SNB-75 = test system: SNB-75
U-251 = test system: U-251
SF-295 = test system: SF-295
K562 = test system: K562
NCI-H460 = test system: NCI-H460
OVCAR-4 = test system: OVCAR-4
DMS-273 = test system: DMS-273
SK-MEL-2 = test system: SK-MEL-2
LXFL 529 = test system: LXFL 529
OVCAR-3 = test system: OVCAR-3
SK-OV-3 = test system: SK-OV-3
SK-MEL-5 = test system: SK-MEL-5
NCI-H23 = test system: NCI-H23
IGROV-1 = test system: IGROV-1
XF498 = test system: XF498
HT-29 = test system: HT-29
COLO 205 = test system: COLO 205
ACHN = test system: ACHN
EKVX = test system: EKVX
HL-60 = test system: HL-60
HCT-116 = test system: HCT-116
OVCAR-8 = test system: OVCAR-8
DLD-1 = test system: DLD-1
SNB-78 = test system: SNB-78
HOP-62 = test system: HOP-62
OVCAR-5 = test system: OVCAR-5
CCRF-CEM = test system: CCRF-CEM
UACC-62 = test system: UACC-62
SF-268 = test system: SF-268
HCC 2998 = test system: HCC 2998

COc1ccc(/N=C/c2ccc(N(CCC#N)S(=O)(=O)c3ccccc3)cc2)cc1
GI50 (RXF 631): > 100 µM (inactive)
GI50 (SN12C): > 100 µM (inactive)
GI50 (NCI-H226): > 100 µM (inactive)
GI50 (SW-620): > 100 µM (inactive)
GI50 (NCI-H522): > 100 µM (inactive)
GI50 (LOX IMVI): > 100 µM (inactive)
GI50 (A549): > 100 µM (inactive)
GI50 (SF-539): > 100 µM (inactive)
GI50 (UO-31): > 100 µM (inactive)
GI50 (HCT-15): > 100 µM
GI50 (MOLT-4): > 100 µM (inactive)
GI50 (M14): > 100 µM (inactive)
GI50 (HOP-92): > 100 µM (inactive)
GI50 (RPMI-8226): > 100 µM (inactive)
GI50 (M19-MEL): > 100 µM (inactive)
GI50 (A498): > 100 µM (inactive)
GI50 (CAKI-1): > 100 µM (inactive)
GI50 (SNB-19): > 100 µM (inactive)
GI50 (KM-20L2): > 100 µM (inactive)
GI50 (KM12): > 100 µM (inactive)
GI50 (RXF 393): > 100 µM (inactive)
GI50 (Malme-3M): > 100 µM (inactive)
GI50 (UACC-257): > 100 µM (inactive)
GI50 (TK-10): > 100 µM (inactive)
GI50 (786-0): > 100 µM (inactive)
GI50 (SR): > 100 µM (inactive)
GI50 (HOP-18): > 100 µM (inactive)
GI50 (DMS-114): > 100 µM (inactive)
GI50 (SK-MEL-28): > 100 µM (inactive)
GI50 (SNB-75): > 100 µM (inactive)
GI50 (U-251): > 100 µM (inactive)
GI50 (SF-295): > 100 µM (inactive)
GI50 (K562): 68.1 µM (inactive)
GI50 (NCI-H460): > 100 µM (inactive)
GI50 (OVCAR-4): > 100 µM (inactive)
GI50 (DMS-273): > 100 µM (inactive)
GI50 (SK-MEL-2): > 100 µM (inactive)
GI50 (LXFL 529): > 100 µM (inactive)
GI50 (OVCAR-3): > 100 µM (inactive)
GI50 (SK-OV-3): > 100 µM (inactive)
GI50 (SK-MEL-5): > 100 µM (inactive)
GI50 (NCI-H23): > 100 µM (inactive)
GI50 (IGROV-1): > 100 µM (inactive)
GI50 (XF498): > 100 µM (inactive)
GI50 (HT-29): > 100 µM (inactive)
GI50 (COLO 205): > 100 µM (inactive)
GI50 (ACHN): > 100 µM (inactive)
GI50 (EKVX): > 100 µM (inactive)
GI50 (HL-60): > 100 µM (inactive)
GI50 (HCT-116): > 100 µM (inactive)
GI50 (OVCAR-8): > 100 µM (inactive)
GI50 (DLD-1): > 100 µM (inactive)
GI50 (SNB-78): > 100 µM (inactive)
GI50 (HOP-62): > 100 µM (inactive)
GI50 (OVCAR-5): > 100 µM (inactive)
GI50 (CCRF-CEM): > 100 µM (inactive)
GI50 (UACC-62): > 100 µM (inactive)
GI50 (SF-268): > 100 µM (inactive)

CC1=NN(C(=O)CC(=O)NC(=O)CC(=O)Nc2ccccc2F)C(=O)C1/N=N/c1ccc([N+](=O)[O-])cc1 (configuration not stated)
GI50 (RXF 631): 30.2 µM (inactive)
GI50 (SN12C): > 100 µM (inactive)
GI50 (NCI-H226): 33.1 µM (inactive)
GI50 (SW-620): 20 µM (inactive)
GI50 (LOX IMVI): 19.6 µM (inactive)
GI50 (A549): 35 µM (inactive)
GI50 (SF-539): > 100 µM (inactive)
GI50 (UO-31): 26.7 µM (inactive)
GI50 (HCT-15): 33.7 µM
GI50 (MOLT-4): 39.3 µM (inactive)
GI50 (M14): 57.4 µM (inactive)
GI50 (HOP-92): 51.4 µM (inactive)
GI50 (RPMI-8226): 22.6 µM (inactive)
GI50 (M19-MEL): 30.3 µM (inactive)
GI50 (A498): 34.3 µM (inactive)
GI50 (CAKI-1): 63.1 µM (inactive)
GI50 (SNB-19): 60.1 µM (inactive)
GI50 (KM-20L2): 29.8 µM (inactive)
GI50 (KM12): 56.1 µM (inactive)
GI50 (Malme-3M): 39 µM (inactive)
GI50 (UACC-257): 29.6 µM (inactive)
GI50 (TK-10): 44.1 µM (inactive)
GI50 (786-0): 27.7 µM (inactive)
GI50 (HOP-18): 31.5 µM (inactive)
GI50 (DMS-114): 21.1 µM (inactive)
GI50 (SK-MEL-28): > 100 µM (inactive)
GI50 (SNB-75): 34.2 µM (inactive)
GI50 (U-251): 21.3 µM (inactive)
GI50 (SF-295): 37.2 µM (inactive)
GI50 (K562): 28.1 µM (inactive)
GI50 (NCI-H460): 37.1 µM (inactive)
GI50 (OVCAR-4): 29.9 µM (inactive)
GI50 (DMS-273): 39.1 µM (inactive)
GI50 (SK-MEL-2): > 100 µM (inactive)
GI50 (LXFL 529): 37.2 µM (inactive)
GI50 (OVCAR-3): 28.6 µM (inactive)
GI50 (SK-OV-3): 45.3 µM (inactive)
GI50 (SK-MEL-5): 44.4 µM (inactive)
GI50 (NCI-H23): 51.9 µM (inactive)
GI50 (IGROV-1): 52 µM (inactive)
GI50 (XF498): 28.3 µM (inactive)
GI50 (HT-29): 19.8 µM (inactive)
GI50 (COLO 205): 31.2 µM (inactive)
GI50 (ACHN): 30.1 µM (inactive)
GI50 (EKVX): 35.1 µM (inactive)
GI50 (HCT-116): 21 µM (inactive)
GI50 (OVCAR-8): 47.6 µM (inactive)
GI50 (DLD-1): 42.3 µM (inactive)
GI50 (SNB-78): > 100 µM (inactive)
GI50 (HOP-62): 56.5 µM (inactive)
GI50 (HCC 2998): 71.6 µM (inactive)
GI50 (OVCAR-5): 97.7 µM (inactive)
GI50 (CCRF-CEM): 33.3 µM (inactive)
GI50 (UACC-62): 55.3 µM (inactive)
GI50 (SF-268): 82.2 µM (inactive)

CCCc1nc(NC#N)nc(C(=O)Nc2ccccc2)c1CC
GI50 (RXF 631): > 100 µM (inactive)
GI50 (SN12C): > 100 µM (inactive)
GI50 (NCI-H226): > 100 µM (inactive)
GI50 (SW-620): > 100 µM (inactive)
GI50 (NCI-H522): > 100 µM (inactive)
GI50 (LOX IMVI): > 100 µM (inactive)
GI50 (A549): > 100 µM (inactive)
GI50 (SF-539): > 100 µM (inactive)
GI50 (UO-31): > 100 µM (inactive)
GI50 (HCT-15): > 100 µM
GI50 (MOLT-4): > 100 µM (inactive)
GI50 (M14): > 100 µM (inactive)
GI50 (HOP-92): > 100 µM (inactive)
GI50 (RPMI-8226): > 100 µM (inactive)
GI50 (M19-MEL): > 100 µM (inactive)
GI50 (A498): > 100 µM (inactive)
GI50 (CAKI-1): > 100 µM (inactive)
GI50 (SNB-19): > 100 µM (inactive)
GI50 (KM-20L2): > 100 µM (inactive)
GI50 (KM12): > 100 µM (inactive)
GI50 (RXF 393): > 100 µM (inactive)
GI50 (Malme-3M): > 100 µM (inactive)
GI50 (UACC-257): > 100 µM (inactive)
GI50 (TK-10): > 100 µM (inactive)
GI50 (786-0): > 100 µM (inactive)
GI50 (HOP-18): > 100 µM (inactive)
GI50 (DMS-114): > 100 µM (inactive)
GI50 (SK-MEL-28): > 100 µM (inactive)
GI50 (SNB-75): > 100 µM (inactive)
GI50 (U-251): > 100 µM (inactive)
GI50 (SF-295): > 100 µM (inactive)
GI50 (K562): > 100 µM (inactive)
GI50 (NCI-H460): > 100 µM (inactive)
GI50 (DMS-273): > 100 µM (inactive)
GI50 (SK-MEL-2): > 100 µM (inactive)
GI50 (LXFL 529): > 100 µM (inactive)
GI50 (OVCAR-3): > 100 µM (inactive)
GI50 (SK-MEL-5): > 100 µM (inactive)
GI50 (NCI-H23): > 100 µM (inactive)
GI50 (IGROV-1): > 100 µM (inactive)
GI50 (XF498): > 100 µM (inactive)
GI50 (HT-29): > 100 µM (inactive)
GI50 (ACHN): > 100 µM (inactive)
GI50 (EKVX): > 100 µM (inactive)
GI50 (HL-60): > 100 µM (inactive)
GI50 (HCT-116): > 100 µM (inactive)
GI50 (OVCAR-8): > 100 µM (inactive)
GI50 (DLD-1): > 100 µM (inactive)
GI50 (SNB-78): > 100 µM (inactive)
GI50 (HOP-62): > 100 µM (inactive)
GI50 (HCC 2998): > 100 µM (inactive)
GI50 (OVCAR-5): > 100 µM (inactive)
GI50 (UACC-62): > 100 µM (inactive)
GI50 (SF-268): > 100 µM (inactive)
